According to patent US10064975B2, “Method for coating skin abrasion, laceration, burn or oedema after surgery” (Lilac Laboratory Co., Ltd., priority 2014, dated 2018):

Experiment: pH
Assay type: physicochemical
Details: less affected by the concentration
Description: According to the present invention, an active ingredient, aluminium chloride hydrate, is preferably used at the practical range of 0.005% to 20% by weight in view of the strong acidity thereof and tissue irritating nature. The pH of aluminium chloride is less affected by the concentration and is as low as around pH 1.9. Aluminium chloride has strong tissue irritating nature, and thus is more preferably adjusted to pH of 2.8 to 6.0 in practical use.
In the present Example, in order to reduce irritating nature at affected areas due to the acidity of aluminium chloride, 3.0% of the 10% sodium hydroxide solution was added to neutralise, the produced precipitate was removed by filtration and pH was adjusted to 3.9. […] Therefore, the 70% ethanol preparation was added as a fungicide.
In the present Example, in order to reduce irritating nature at affected areas due to the acidity of aluminium chloride, the solution was neutralised with sodium hydroxide and adjusted to pH 3.5, and the precipitate was removed by filtration.

For `[Cl][Al]([Cl])[Cl]` [aluminium chloride], which “pH of aluminium chloride” value is on record?
Its value is ~1.9.
